# Measurements taken from publication PMC4139006 (Pediatric blood & cancer, 2013).
# Where two headings read alike, the source gives them in different places.
# Tests used:
# [1] = systemically administered; cited from earlier work
# [2] = human, in vivo
# [3] = given continuously as a single daily dose; pediatric; cited from earlier work
# Phase I dose escalation = type: in vivo, children; conditions: oral, days 1–5 every 28 days, VOR about one hour before TEM
# clinical = conditions: human, in vivo, po
# medulloblastoma/PNETs = conditions: of 25 evaluable patients with medulloblastoma/PNETs; cited from earlier work
# low-grade glioma = conditions: single-agent temozolomide, cited from earlier work
Compound,"Cmax ([2]; po, 300 mg/m2)","half-life ([2]; po, 300 mg/m2)",pediatric MTD and recommended phase II dosing for the combination of VOR and TEM (Phase I dose escalation),"half-life (clinical; 230 mg/m2, Half-life)","AUC(0-inf) (clinical; 300 mg/m2, AUC0-∞)","Cmax (clinical; 300 mg/m2, Cmax)","half-life (clinical; 300 mg/m2, Half-life)",also measured
"O=C(CCCCCCC(=O)Nc1ccccc1)NO [VOR, suberoylanilide hydroxamic acid]",578 (200 – 821) ng/ml,2.80 (2.23 – 5.90) hrs,300 mg/m^2/day,2.61 h,1790 ng·h/mL,422 ng/mL,2.62 h,"blood brain barrier crossing [1]: crosses the blood brain barrier; time to maximum concentration [2]: 2 h; Cmax ([2]; po, 230 mg/m2): 390 (221 – 655) ng/ml; MTD of single-agent oral VOR [3]: 230 mg/m^2/day"
"O=C(O)CCC(=O)Nc1ccccc1 [4-anilino-4-oxobutanoic acid, 4-anilino-4-oxobutanoic acid]",814 (588 – 832) ng/ml,9.19 (6.49 – 11.6) hrs,,10.4 h,7490 ng·h/mL,750 ng/mL,9.18 h,"AUC0-∞ ([2]; po, 300 mg/m2): 9590 (7150 – 16600) ng/ml*hr; Tmax ([2]; po, 300 mg/m2): 2.00 (0.88 – 6.00) hrs; AUC(0-inf) (clinical; 230 mg/m2, AUC0-∞): 6900 ng·h/mL; Cmax (clinical; 230 mg/m2, Cmax): 490 ng/mL; Tmax (clinical; 230 mg/m2, Tmax): 3 h; Tmax (clinical; 300 mg/m2, Tmax): 4 h"
"Cn1nnc2c(C(N)=O)ncn2c1=O [TEM, Temozolomide]",,,150 mg/m^2/day,,,,,"complete or partial responses, patients (medulloblastoma/PNETs): 4; patients having prolonged stable disease (low-grade glioma; adults): 30%; response rates (low-grade glioma; adults): 50–60%; median progression-free survival (PFS) (low-grade glioma): 22–28 months"
